{"source": "patent US12558345B2", "about": "“CHK1/2 inhibitors for use in the treatment of neuroblastomas and/or soft tissue sarcomas” (Eli Lilly and Company, priority 2015, dated 2026)", "key": {"[1]": {"tested_on": "G2M DNA damage checkpoint (pHH3) in HeLa cells", "experiment": "Doxorubicin-Induced G2M Checkpoint Abrogation HeLa Cell-Based Acumen Assay", "settings": "Homo sapiens, 125 nM doxorubicin 24 hours, compound seven hours, Relative EC50", "procedure": "An inhibitor of CHK1 will disable the G2M DNA damage checkpoint in p53-minus tumor cells treated with the topoisomerase II inhibitor, doxorubicin. A measurement of G2M checkpoint abrogation is the phosphorylation of histone H3 on serine 10 that occurs after cells traverse the G2M checkpoint and enter mitosis. The following high content imaging assay can be used to measure the phosphorylation of histone H3 in cells. HeLa cells (purchased from ATCC) are cultured in MEM Media (Gibco™) supplemented with 10% (v/v) FBS and plated at 2000 cells per well in poly D-lysine coated clear bottom black plates (BD Biocoat Cat #3504640), 100 μL volume per well. Plates are then incubated in a cell culture incubator for 18-24 hours (37° C., 5% CO2 and 95% relative humidity). […] Plates are scanned with ACUMEN EXPLORER™ Laser-scanning fluorescence microplate cytometers using 488 nm excitation (TTP LABTECH LTC) to measure pHH3 and DNA content including 2 N, and 4 N. The pHH3 positive cells are identified by mean intensity at 519 nm from Alexa 488. […] The final readout for each population is determined by normalizing to the % of total cells producing a final assay output of % pHH3, %2 N and %4 N. 100% activity is then determined by treating cells with the maximum concentration of an inhibitor control compound at 100 nM to determine the final % activity of each compound. […]"}, "[2]": {"tested_on": "ST0001 LMS patient-derived xenograft", "experiment": "Xenograft Tumor Model ST0001", "format": "in vivo, mouse", "settings": "comparator day 19, p-value 0.247", "procedure": "For all “ST” models (encompassing RMS and LMS), patient-derived xenografts are established from viable human tumor tissue and are serially passaged in animals a limited number of times to maintain tumor heterogeneity. In subcutaneous models, athymic nude mice (Crl:NU(NCr)-Foxn1nu) or CB-17 SCID mice (CRL-CB17/Icr-Prkdcscid/IcrIcoCrl) are injected or implanted unilaterally into the flank with tumor fragments harvested from host animals, each implanted from a specific passage lot. For all studies, measure tumor growth and body weight twice per week beginning on the seventh day after implantation. When tumor size reaches 150-300 mm^3, randomize animals and group into groups of 4-7 animals. Prepare test compound in an appropriate vehicle (e.g. vehicle can be 20% Captisol® in sterile water) and administer subcutaneously for three consecutive days followed by a four day dosing holiday and repeat for a minimum of four weeks. Tumor response is determined by tumor volume measurement performed twice per week during the course of treatment."}, "[3]": {"tested_on": "RD, SJCRH30, Saos-2 and RD-ES cell lines", "experiment": "In Vitro Response of Pediatric Cell Lines (western blot)", "format": "cell-based", "settings": "24 hours at 5 and 50 nM", "procedure": "Cellular lysates can be obtained from embryonal and alveolar rhabdomyosarcoma (RD and SJCRH30, respectively), osteosarcoma (Saos-2), and Ewing's sarcoma (RD-ES) cell lines treated with 5-(5-(2-(3-aminopropoxy)-6-methoxyphenyl)-1H-pyrazol-3-ylamino)pyrazine-2-carbonitrile methanesulfonic acid monohydrate (Example 5) for 24 hours at 5 and 50 nM final concentration.\nA western blot can be run using the cellular lysates described above. […] Higher levels of DNA damage can be observed with CHK1 inhibition. Accordingly, the levels of gammaH2AX, a signal for DNA damage, increase upon treatment with 5-(5-(2-(3-aminopropoxy)-6-methoxyphenyl)-1H-pyrazol-3-ylamino)pyrazine-2-carbonitrile methanesulfonic acid monohydrate (Example 5)."}, "[4]": {"tested_on": "SJCRH-30 RMS xenograft", "format": "in vivo", "settings": "for % T/C: SJCRH-30, RMS", "description": "Expand human RMS cancer cells SJCRH-30 (St. Jude Children's Research Hospital) in culture, harvest, and inject 5×10^6 cells in 200 μL of HBSS subcutaneously into the right rear flank of female athymic nude mice (20-22 g, Harlan Laboratories).\nThe vehicle used in this study is 20% Captisol® in sterile water and is administered subcutaneously for three consecutive days followed by a four day dosing holiday and repeated for a minimum of four weeks. […] The treatment period lasts 4 weeks."}}, "note": "Where a name gives a salt, the structure may show the parent alone. Read-outs that look alike come from different tables or passages of the source.", "data": [{"compound": "COc1cccc(OCCCN)c1-c1cc(Nc2cnc(C#N)cn2)n[nH]1", "note": "[Example 2, 5-(5-(2-(3-Aminopropoxy)-6-methoxyphenyl)-1H-pyrazol-3-ylamino)pyrazine-2-carbonitrile dihydrogen chloride salt]", "values": [{"measurement": "EC50", "setting": "[1]", "value": 10.5, "unit": "nM"}]}, {"compound": "COc1cccc(OCCCN)c1-c1cc(Nc2cnc(C#N)cn2)n[nH]1", "note": "[Example 5, 5-(5-(2-(3-Aminopropoxy)-6-methoxyphenyl)-1H-pyrazol-3-ylamino)pyrazine-2-carbonitrile methanesulfonic acid monohydrate]", "values": [{"measurement": "% T/C", "setting": "[2]", "value": 292, "unit": "%"}, {"measurement": "CHK1 protein levels", "setting": "[3]", "value": "do not change"}, {"measurement": "levels of gammaH2AX (signal for DNA damage)", "setting": "[3]", "value": "increase"}, {"measurement": "levels of phospho-AKT", "setting": "[3]", "value": "do not appear to change"}, {"measurement": "phospho-CHK1 (S345) levels", "setting": "[3]", "value": "increase"}, {"measurement": "levels of phospho-ERK 1/2 (T202/Y204)", "setting": "[3]; RD-ES non-responding", "value": "increase in three out of four cell lines"}, {"measurement": "phospho-hnRNP-C levels", "setting": "[3]; unaffected in the RD-ES cell line", "value": "increase"}, {"measurement": "% T/C", "setting": "[4]; comparator day 46", "value": 0.1, "unit": "%"}, {"measurement": "% T/C", "setting": "[4]; comparator day 56", "value": 58, "unit": "%"}, {"measurement": "tumor response as a single agent", "setting": "[4]; SJCRH-30, SC three days on, four day holiday, 4 weeks, tumor regrowth occurs from day 38", "value": "initial complete response until day 38"}, {"measurement": "effect on acquired resistance in SJCRH30 xenografts", "setting": "[4]; combination with doxorubicin, ifosfamide, or irinotecan", "value": "appears to circumvent the acquired resistance"}]}]}
